Measurements taken from patent publication US20070049564A1 (Wyeth, priority 2005, published 2007).

Assays:
Experiment in all cases: MIC, broth microdilution
[1] = system: E. coli GC 6465; conditions: Escherichia coli, GC6465, E. coli GC 6465
[2] = system: P. aeruginosa GC 2214; conditions: Pseudomonas aeruginosa, GC2214, P. aeruginosa GC 2214
[3] = system: S. aureus GC 6469; conditions: Staphylococcus aureus, GC6469, S. aureus GC 6469
[4] = system: S. aureus GC 1131; conditions: Staphylococcus aureus, GC1131, S. aureus GC 1131
Description: (§1) Antimicrobial susceptibility testing. The in vitro activities of the antibiotics are determined by the broth microdilution method as recommended by the National Committee for Clinical Laboratory Standards (NCCLS) (1). Mueller-Hinton II broth (MHBII)(BBL Cockeysville, Md.) is the medium employed in the testing procedures. Microtiter plates containing serial dilutions of each antimicrobial agent are inoculated with each organism to yield the appropriate density (10^5 CFU/ml) in a 100 μl final volume. The plates are incubated for 18-22 hours at 35° C. in ambient air.
(§2) Representative compounds were first incubated in mouse serum for an hour prior to the in vitro testing against a panel of selected gram-positive and gram-negative bacteria strains. All compounds were also pre-incubated in water for an hour prior to testing as control.

[5] = system: E. coli GC 2233; conditions: Escherichia coli, GC2233, E. coli GC 2233
[6] = system: S. epidermidis GC 4935; conditions: Staphylococcus epidermidis, GC4935, S. epidermidis GC 4935
[7] = system: E. coli GC 3226; conditions: Escherichia coli, GC3226, E. coli GC 3226
Description: as §1
(§3) Representative compounds were first incubated in mouse serum for an hour prior to the in vitro testing against a panel of selected gram-positive and gram-negative bacteria strains. All compounds were also pre-incubated in water for an hour prior to testing as control. Representative compounds of Formula I were incubated in human serum prior to MIC determination.

[8] = system: S. aureus GC 6335; conditions: Staphylococcus aureus, GC6335, S. aureus GC 6335
[9] = system: S. aureus GC 6467; conditions: Staphylococcus aureus, GC6467, S. aureus GC 6467
[10] = system: E. coli GC 2203; conditions: Escherichia coli, GC2203, E. coli GC 2203
[11] = system: c. albicans GC 3066
[12] = system: E. faecium GC 2243; conditions: Enterococcus faecium, GC2243, E. faecium GC 2243
Description: as §1, §2

[13] = system: E. coli GC 2271; conditions: Escherichia coli, GC2271, E. coli GC 2271
[14] = system: E. faecalis GC 2265; conditions: Enterococcus faecalis, GC2265, E. faecalis GC 2265
[15] = system: E. coli GC 1073; conditions: Escherichia coli, GC1073, E. coli GC 1073
[16] = system: E. coli GC 2270; conditions: Escherichia coli, GC2270, E. coli GC 2270
Description: as §1, §3

[17] = system: E. faecalis GC 2267; conditions: Enterococcus faecalis, GC2267, E. faecalis GC 2267
[18] = system: E. coli GC 2272; conditions: Escherichia coli, GC2272, E. coli GC 2272
[19] = system: E. coli GC 4560; conditions: Escherichia coli, GC4560, E. coli GC 4560
[20] = system: S. aureus GC 1079; conditions: Staphylococcus aureus, GC1079, S. aureus GC 1079

Measured: MIC

CCCN(CC(=O)Nc1cc(N(C)C)c2c(c1O)C(=O)C1=C(O)[C@]3(O)C(=O)C(C(N)=O)=C(O)[C@@H](N(C)C)[C@@H]3C[C@@H]1C2)C(=O)OCOC(=O)c1ccc(C)cc1 [Example 5, ({[(2-{[(5aR,6aS,7S,10aS)-9-(aminocarbonyl)-4,7-bis(dimethylamino)-1,8,10a,11-tetrahydroxy-10,12-dioxo-5,5a,6,6a,7,10,10a,12-octahydrotetracen-2-yl]amino}-2-oxoethyl)(propyl)amino]carbonyl}oxy)methyl 4-methylbenzoate]
1 µg/mL: [4]; Water pre-incubation | [6]; Mouse Serum pre-incubation | [8]; Water pre-incubation | [10]; Mouse Serum pre-incubation | [12]; Water pre-incubation | [13]; Mouse Serum pre-incubation | [16]; Mouse Serum pre-incubation | [18]; Mouse Serum pre-incubation
16 µg/mL: [13]; Water pre-incubation | [16]; Water pre-incubation
8 µg/mL: [1]; Mouse Serum pre-incubation
32 µg/mL: [2]; Mouse Serum pre-incubation | [5]; Water pre-incubation | [7]; Water pre-incubation | [10]; Water pre-incubation | [15]; Water pre-incubation | [18]; Water pre-incubation
0.5 µg/mL: [4]; Mouse Serum pre-incubation | [8]; Mouse Serum pre-incubation | [12]; Mouse Serum pre-incubation | [19]; Mouse Serum pre-incubation
2 µg/mL: [3]; Mouse Serum pre-incubation | [5]; Mouse Serum pre-incubation | [6]; Water pre-incubation | [7]; Mouse Serum pre-incubation | [9]; Mouse Serum pre-incubation | [14]; Mouse Serum pre-incubation | [15]; Mouse Serum pre-incubation | [17]; Mouse Serum pre-incubation | [20]; Mouse Serum pre-incubation | [20]; Water pre-incubation
>64 UG/ML: [11]; c. albicans GC 3066, Water pre-incubation
4 µg/mL: [3]; Water pre-incubation | [9]; Water pre-incubation | [14]; Water pre-incubation | [17]; Water pre-incubation | [19]; Water pre-incubation
> 64 µg/mL: [1]; Water pre-incubation | [2]; Water pre-incubation | [11]; Candida albicans, GC3066
